Experimental data: patent US12161641B2, “Treatments and prevention of opioid neonatal abstinence syndrome” (Ohio State Innovation Foundation, priority 2016, dated 2024)

Legend:
pre-weaning age mice = experiment: Naloxone-induced withdrawal jumping after morphine dosing in early postnatal mice; type: in vivo
Protocol: Animals were injected with morphine alone or morphine mixed with increasing amounts of 6β-naltrexol. Injections were started on postnatal day 12 (PD12) and continued for 5 days. On days 1-3 morphine was injected at 10 mg/kg, and at 20 mg/kg on days 4 and 5. On day 6 (PD18) a final injection of 20 mg/kg was made, and 3 hours later mice were injected with 30 mg/kg naloxone to induce withdrawal. All injections were subcutaneous. When Morphine was co-injected with 6β-naltrexol the latter was held at a constant ratio when the Morphine dose was increased on days 4-6. Because of the changing Morphine dosages the 6β-naltrexol dose is reported as a ratio relative to Morphine, or as a dose range. Immediately upon injection with naloxone mice were placed in a clear plastic container with a 6 inch square base and 10 inches tall, with a lid. Withdrawal jumping was videotaped and jumps were scored in a 15 minute interval.
Summary data are presented as means+1 SEM unless otherwise indicated Continuous data (drug concentrations) were analyzed using one-way ANOVA and post hoc comparisons were made using either Dunnett's procedure (for one-to-many comparisons) or t-tests (for all-pairs contrasts). In the latter case, p-values were adjusted for multiple comparisons using Hommel's method (Hommel, G. (1988) Biometrika 75:383-386). Data were log transformed to account for heteroscedasticity. When ratio values such as the brain/plasma ratio were compared, these were log-transformed before analysis to account for the constrained structure of ratio variables (e.g., Heslop, D. (2009) Geophys. J. Int. 178:159-161; Schilling K, et al. (2012) J Neurosci. 32:12651-12656). The dependence of jumping behavior on 6β-naltrexol levels was modelled using a 4-parametric log-normal curve taking into account that the response was a count variable. AUCs were integrated over the time span analyzed (i.e., from 0 to 240 min; Wolfsegger, M J, et al. (2009) J Pharmacokinet Pharmacodyn 36:479-494). Confidence intervals for AUCs were obtained by bootstrapping, as recommended in Jaki & Wolfsegger (Jaki, T, et al (2009) Pharmaceutical Statistics 8:12-24). All statistical procedures were implemented in R (R Core Team, 2015), using the packages multcomp (Hothorn, T, et al. (2008) Biometrical Journal 50:346-363) for multiple comparisons, PK (Jaki, T, et al. (2011) Pharmaceutical Statistics 10:284-288) for pharmacokinetic analyses, and drc (Ritz, C, et al. (2005) Bioassay analysis using R. J. Stat. Softw. 12:22) for dose-response fitting.
Considering that 6β-naltrexol continues to penetrate the brain at high levels prior to PD20 experiments were conducted to determine whether concomitant administration of 6β-naltrexol reduces withdrawal behaviors in pre-weaning age mice. A morphine dosing schedule was adapted based on studies in early postnatal rats and adult mice (Kest B. et al. (2002) Neuroscience 115:463-469; Jones, K L, et al. (1995) Behav. Neurosci. 109:1189-1198). Mice were injected with morphine alone, with morphine in combination with increasing concentrations of 6β-naltrexol, or saline alone, starting at P12 and continuing for 6 days. Withdrawal was then induced with an injection of naloxone. There was robust jumping characteristic of adult withdrawal behavior (Kest B, et al. (2002) Neuroscience 115.463-469), but not previously reported for pre-weaning mice or rats to our knowledge. […] At the highest dose tested, 0.5-1.0 mg/kg (= 1/20th that of morphine), withdrawal jumping is 94% reduced. The lowest 6β-naltrexol dose tested, 0.0033-0.0066 mg/kg (= 1/3000th that of morphine) caused a 20% decrease in jumping. There is also a time component to the effect of 6β-naltrexol on jumping behavior (FIG. 3B). As 6β-naltrexol levels were increased the jumps observed in a 15 minute testing bout were increasingly delayed. […]

[1] = Weight gain during 6 day morphine dosing schedule; type: in vivo, mice; conditions: increasing concomitant doses with morphine; 6 day dosing schedule
Protocol: Total jumps were counted over a period of 15 minutes starting immediately after the injection of naloxone to induce withdrawal. Two concentration ramping procedure were used for the morphine injections with commensurate ramping of 6β-naltrexol. Data are plotted using the lower of the two drug concentrations. Asterisks indicate a significant difference compared to morphine treated animals with no 6β-naltrexol; *p<0.05; **p<0.01. […] Bidirectional arrows indicate the time bin for each 6β-naltrexol dose where an equal number of jumps occur prior to and after that time bin. Note that this timepoint increases with increasing 6β-naltrexol. Asterisk indicates a significant effect of the 1/3000, 1/1000, and 1/200 doses of 6β-naltrexol compared to morphine-alone in the first three time bins. […] The mass of each mouse was determined before and after the 6 day morphine dosing schedule and the percent weight change was determined. Asterisk indicates significant difference from animals that received morphine but no (“0”) 6β-naltrexol (p<0.05). In FIG. 3A, the number in parentheses indicates the number of animals tested at each drug concentration. […]
Animals were injected with morphine alone or morphine mixed with increasing amounts of 6β-naltrexol. […] Withdrawal jumping was videotaped and jumps were scored in a 15 minute interval. […]

Oc1ccc2c3c1O[C@H]1[C@H](O)CC[C@@]4(O)[C@@H](C2)N(CC2CC2)CC[C@]314 [6β-naltrexol]
total jumps in the first three time bins (up to 4.5 mins) (pre-weaning age mice; 0.0033 mg/kg, 73+28 with no 6β-naltrexol, p=0.07): 37+29 jumps | latency-to-first-jump (pre-weaning age mice; 0.01-0.02 mg/kg (1/1000th the dose of morphine)): 118+31 sec | latency-to-first-jump (pre-weaning age mice; 0.05-0.1 mg/kg (1/200th the dose of morphine)): 163+46 sec | Survival (pre-weaning age mice; all conditions and all animals tested by this procedure): 100% | inhibitory dose 50 (ID50), withdrawal jumping (pre-weaning age mice; co-injected with morphine 10-20 mg/kg s.c. PD12-PD18, naloxone 30 mg/kg, jumps in 15 minutes): 0.022 to 0.044 mg/kg | withdrawal jumping reduced (pre-weaning age mice; highest dose tested, 0.5-1.0 mg/kg (1/20th that of morphine)): 94% | latency-to-first-jump (pre-weaning age mice; lowest dose (1/3000th the dose of morphine), 38+8 sec with no 6β-naltrexol): 128+44 sec | decrease in jumping (pre-weaning age mice; lowest dose tested, 0.0033-0.0066 mg/kg (1/3000th that of morphine)): 20% | ID50 dose lower than the morphine dose used for inducing dependence (pre-weaning age mice; mouse, in vivo): ~500 fold | ID50 relative to the morphine dose (pre-weaning age mice; ratio of 6β-naltrexol to morphine): 1/450 | effect on inhibition of weight gain by morphine [1]: alleviated
